# Assay results: PMC2939023, “Attenuated T Cell Responses to a High-Potency Ligand In Vivo” (PLoS Biology, 2010)
# Entries after “also recorded” stand apart in the source; their conditions may differ. Where no end group is shown, it is not given here.
# Experiments:
# [1] = tested on: 5C.C7 T cells; test: In vivo antigen persistence (division of later transferred 5C.C7 T cells); design: species or system mouse; conditions: peptide injected 4, 2, 1, 0 wk before transfer; division at 48 h; in words
# From the text: We addressed potential differential in vivo antigen persistence by injecting MCC or K5 peptide at various times prior to transfer of CFSE-labeled 5C.C7 T cells (Figure S7). In this experiment, the extent of division of the transferred T cells serves as a readout of amount of antigen present. […] We then considered the possibility that the blunted responses were occurring because the amount of K5 pMHC complexes was limiting in vivo. In order to directly examine the stimulatory function of in vivo–pulsed APCs, we used irradiated splenic DCs isolated from mice immunized with the different peptides to activate naïve 5C.C7 T cells in vitro, without the addition of exogenous peptide (Figure 2B,C).
# Supplementary file pbio.1000481.s007.eps: Figure S7 MCC and K5 peptides persist equally in vivo. B10.A mice were immunized with the indicated peptides at 4, 2, 1, and 0 wk before adoptive transfer of CFSE-labeled 5C.C7 T cells. 5C.C7 T cell division was analyzed at 48 h after transfer as a measure of peptide antigen persistence over time. All histograms are gated on CD4^+CD45.1^+ 5C.C7 T cells. Data shown are representative of two mice per condition and two experiments. (0.99 MB EPS) Click here for additional data file.
# [2] = tested on: 5C.C7 RAG2−/− lymphocytes; assay type: cell-based, mouse; conditions: 3 h
# Description: Cells were cultured in a 37°C humidified chamber with 5% C0_2 in complete RPMI1640 (supplemented with 10% FCS, […], 100 U/mL penicillin and streptomycin, 2 µM 2-mercaptoethanol). Single-cell suspensions were prepared from lymph nodes harvested from 5C.C7 RAG2-deficient mice (routinely >90% Vα11+Vβ3+ by flow cytometry) and stimulated in triplicate in 96-well round-bottom plates with irradiated (2,000 rad) B10.A splenocytes and the indicated peptides for 60 h. Proliferation was monitored by the addition of ^3H-methyl-thymidine (1 µCi/well). Cells were harvested onto glass-fiber filters using a Tomtec harvester, and filters were counted using a MicroBeta scintillation counter (Perkin-Elmer).
# [3] = tested on: OT-1 TCR; conditions: OT-1 TCR ligands, Listeria monocytogenes; in words; ref [25]; cited from earlier work
# From the text: The reason we observed attenuation at the high end of the ligand potency spectrum may be because we were able to examine T cell responses to a superagonist peptide, which possibly exceeds a ligand potency threshold at which T cell attenuation is observed. Attempts to find other strong 5C.C7 TCR ligands, which would facilitate examination o ...
Sequence,In vivo peptide antigen persistence [1],EC50 [2],Potency of T cell responses in vitro and in vivo [3]
ANERADLIAYFKAATKF [K5],persist equally and for a few weeks in vivo,17.5 nM,–
ANERADLIAYLKQASK [102S],–,160 nM,–
"ANERADLIAYLKQATK [MCC, moth cytochrome c (MCC) peptide]",persist equally and for a few weeks in vivo,37.8 nM,–
ANERADLIAYPKAATKF [K3],–,24.9 nM,–
SIINFEKL [natural OT-1 TCR ligand],–,–,induced the most robust response; also recorded: exhibited the most potent responses in vitro and in vivo
